Data set [1] relates to Bach1 mRNA. As to the kind of experiment: Initial screen: Bach1 mRNA knock-down in human A549 cells (96-well transfection, quantitative RT-PCR). Type of data set: cell-based. The note with it: for % KD: Bach1 mRNA, 10 nM siNA, human A549 cells, n = 2, mean ± S.D., normalized to GAPDH and non-targeting control, 24 hrs post-transfection; for % KD Bach1: Table 5, Bach1 mRNA screening data, A549 cells.

For data set [2], the system named is Bach1 mRNA. As to the kind of experiment: Bach1 mRNA knockdown and potency in human bronchial epithelial cells (NHBE). In kind it is cell-based. Conditions: 48 hours post transfection, mean of 3 donors; for EC50: Bach1 mRNA knockdown; for Maximum mRNA knockdown: Bach1 mRNA. On the procedure:
The siNAs with Duplex ID numbers corresponding to 29961-DC, 29964-DC, 29984-DC, 29988-DC, 29957-DC, 29947-DC, and 29956-DC were tested for maximum Bach1 mRNA knockdown and for potency in human bronchial epithelial cells as follows.
Human Bronchial Epithelial cells (NHBE cells) obtained from Lonza (Cat. No. CC-2540) were grown at 37deg in the presence of 5% CO2 and cultured in BEBM basal medium (Lonza, Cat. No. CC-3171) on Biocoat Collagen1 coated flasks (Becton Dickinson).
NHBE cells were plated in collagen 1 coated plates and cultured in appropriate culture media. The cells were cultured for 24 hours after plating at 37 degrees in the presence of 5% CO2. siNAs were diluted in OptiMEM 1 to 1 uM and the transfection agent to 25 ug/ml. For formulation of the siNAs equal volumes of the diluted siNA and delivery lipid were combined and incubated for 20 minutes at room temperature. Cells were meanwhile trypsinised and resuspended in antibiotic free BEBM media at 150,000 cells/ml. 20 ul of the formulated siNA and 80 ul of BEBM media was added per well of a 96 well plate (6 replicates/data point/siNA concentration) so as to give a nine point dose range of the siNAs (100 nM, 30 nM, 10 nM, 3 nM, 1 nM, 0.3 nM, 0.1 nM, 0.03 nM, 0.01 nM). The time of incubation with the transfection-siNA complexes were 48 hours with one change of media at 24 hours.
Total RNA was isolated from the cells in the 96-well plate format using the Automated SV96 Total RNA Isolation System (Promega) according to the manufacturer's instructions. The Biomek 2000 Laboratory Automation Workstation (Beckman Coulter) was used to apply the transfected cell lysates to a silica membrane. RNase-Free DNase I was then applied directly to the silica membrane to digest contaminating genomic DNA. The bound total RNA was further purified from contaminating salts, proteins and cellular impurities by simple washing steps. Finally, total RNA was eluted from the membrane by the addition of Nuclease-Free Water.
A series of probes and primers were used for the detection of mRNA transcripts of Bach1, OAS1, IL8 and GAPDH (as control/normalisation) in the human cell lines. The assays were performed on an ABI 7900HT instrument according to the manufacturer's instructions. Primer Probe sets used:
With Taqman data critical threshold values (Ct) were converted to copy numbers corresponding to the particular gene analysed in each well of the 384 well plate. Six identical wells were prepared in each plate for a given treatment. […] Determination of the percentage coefficient of variation (CV) (% C.V.=[standard deviation/average]*100) allowed the omitting of wells whose value was an outlier (so that % C.V.<25). Relative abundance (aka relative expression) of a gene was determined by dividing the mean copy number of that gene with its GAPDH counterpart in that particular sample.
EC50 values were calculated from the data using sigma plot. All calculations of the efficacy and potency of the siNAs were done relative to the non-targeting control siNA. Percentage knockdown was compared between the four lead siNA's. The data was analysed using an ANOVA test and then the p-values were corrected for multiple comparisons using the False Discovery Rate correction (FDR).

Seven substances from US20120016010A1, “RNA Interference Mediated Inhibition of BTB and CNC Homology 1, Basic Leucine Zipper Transcription Factor 1 (BACH1) Gene Expression Using Short Interfering Nucleic Acid (siNA)” (Merck Sharp & Dohme Corp, priority 2009, published 2012) can be followed below.

One may read the EC50 as the midpoint of the concentration-response curve.

As for “29957-DC (sense GCAGUUACUUCCACUCAAGTT; antisense CUUGAGUGGAAGUAACUGCUU; inverted abasic end caps, TT overhangs, modified nucleotides, further chemistry not given here)”, in the data set with Bach1 mRNA [1], the “% KD” value was 84.6 ± 5.4% and the “% KD Bach1” value is 84.6 ± 5.4%. In the data set with Bach1 mRNA [2], the response was half-maximal at 0.95 nM (EC50) and the “Maximum mRNA knockdown” value worked out at 70%.

“29964-DC (sense GAUUUGCAGGUGAUGUUAATT; antisense UUAACAUCACCUGCAAAUCUU; inverted abasic end caps, TT overhangs, modified nucleotides, further chemistry not given here)”: in the data set on Bach1 mRNA [1], the “% KD” value came out at 90.1 ± 0.8% and the “% KD Bach1” value came to 90.1 ± 0.8%. Further, in the data set with Bach1 mRNA [2], the 50% effective concentration (EC50) came out at 9.52 nM and the “Maximum mRNA knockdown” value amounted to 72%.

As for “29984-DC (sense GUUAAAGGAUUUGAACCUUTT; antisense AAGGUUCAAAUCCUUUAACUU; inverted abasic end caps, TT overhangs, modified nucleotides, further chemistry not given here)”, the “% KD” value with Bach1 mRNA [1] is on record as 66.2 ± 15.3%. In the data set with Bach1 mRNA [2], it took 23.2 nM to reach a half-maximal effect (EC50) and the “Maximum mRNA knockdown” value is on record as 65%.

As to “29961-DC (sense CUACACUGCUAAACUGAUUTT; antisense AAUCAGUUUAGCAGUGUAGUU; inverted abasic end caps, TT overhangs, modified nucleotides, further chemistry not given here)”, in the data set with Bach1 mRNA [1], the “% KD” value is 90 ± 1.3% and the “% KD Bach1” value is given as 90 ± 1.3%. Further, in the data set on Bach1 mRNA [2], the half-maximal effective concentration (EC50) came to 7.87 nM and the “Maximum mRNA knockdown” value is recorded as 80%.

Turning to “29988-DC (sense AUUUGAACCUUUAAUUCAGTT; antisense CUGAAUUAAAGGUUCAAAUUU; inverted abasic end caps, TT overhangs, modified nucleotides, further chemistry not given here)”, in the data set on Bach1 mRNA [1], the “% KD” value is 86.2 ± 3.1% and the “% KD Bach1” value worked out at 86.2 ± 3.1%. Besides, in the data set on Bach1 mRNA [2], the response was half-maximal at 3.84 nM (EC50) and the “Maximum mRNA knockdown” value turned out to be 70%.

Consider “29956-DC (sense GUCUGAGUGUCCGUGGUUATT; antisense UAACCACGGACACUCAGACUU; inverted abasic caps (B), 2'-modified nucleotides, further chemistry not given here)”, for which, in the data set on Bach1 mRNA [1], the “% KD” value worked out at 75.8 ± 7.7% and the “% KD Bach1” value amounted to 75.8 ± 7.7%. In the data set with Bach1 mRNA [2], a half-maximal effect (EC50) was put at 2.16 nM and the “Maximum mRNA knockdown” value is 68%.

Turning to “29947-DC (sense GGAAUCCUGCUUUCAGUUUTT; antisense AAACUGAAAGCAGGAUUCCUU; inverted abasic caps (B), 2'-modified nucleotides, further chemistry not given here)”, in the data set on Bach1 mRNA [1], the “% KD” value is recorded as 83.4 ± 6.9% and the “% KD Bach1” value is listed as 83.4 ± 6.9%. Besides, in the data set on Bach1 mRNA [2], the half-maximal effective concentration (EC50) amounted to 4.31 nM and the “Maximum mRNA knockdown” value is recorded as 65%.
